According to PubChem BioAssay (NCI):
“And” between values parts separate entries of the source, which are not always exact repeats. Equal values may be shown once.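 The compound was tested at five concentrations on cells cultured in 96-well plates, with a 48-hour exposure period. GI50 = concentration required for 50% inhibition of growth. TGI is the concentration that stops growth completely.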

Legend:
Assay in all cases: NCI anticancer screen, dose series, 48 h
OVCAR-4 ovarian = tested on: OVCAR-4 ovarian
SF-539 CNS = tested on: SF-539 CNS
NCI-H522 lung = tested on: NCI-H522 lung
SF-268 CNS = tested on: SF-268 CNS
HT29 colon = tested on: HT29 colon
NCI/ADR-RES ovarian = tested on: NCI/ADR-RES ovarian
SK-MEL-5 melanoma = tested on: SK-MEL-5 melanoma
A498 renal = tested on: A498 renal
SR leukemia = tested on: SR leukemia
K-562 leukemia = tested on: K-562 leukemia

Structure (SMILES) | GI50 (OVCAR-4 ovarian) | TGI (OVCAR-4 ovarian) | GI50 (SF-539 CNS) | TGI (SF-539 CNS) | GI50 (NCI-H522 lung) | TGI (NCI-H522 lung) | GI50 (SF-268 CNS) | TGI (SF-268 CNS) | GI50 (HT29 colon) | TGI (HT29 colon) | GI50 (NCI/ADR-RES ovarian) | TGI (NCI/ADR-RES ovarian) | GI50 (SK-MEL-5 melanoma) | TGI (SK-MEL-5 melanoma) | GI50 (A498 renal) | TGI (A498 renal) | GI50 (SR leukemia) | TGI (SR leukemia) | GI50 (K-562 leukemia) | TGI (K-562 leukemia)
CCCCCCCCCCCCNC(=O)[C@H]1CSC(c2cc(Br)cs2)N1 (stereo partly drawn) | 0.917 µM | 1.95 µM | 0.95 µM | 1.87 µM | 1.37 µM | 4.31 µM | 0.598 µM | 1.42 µM | 1.59 µM | 5.76 µM | 1.11 µM | 2.47 µM | 5.57 µM | 11.8 µM | 7.38 µM | 14.1 µM | 0.967 µM | 2.27 µM | 1.13 µM | 2.46 µM
NC(Cc1ccc(O)cc1)C(=O)N/N=C/c1ccc(N(CCCl)CCCl)cc1 (stereo not drawn) | 28.4 µM | > 100 µM | 4.26 µM | 68.3 µM | 25.1 µM | > 100 µM | 2.81 µM | 87.8 µM | 28.5 µM | > 100 µM | 17.3 µM | > 100 µM | 19.5 µM | > 100 µM | 9.78 µM | 59.5 µM | 0.189 µM | 20.4 µM | 3.59 µM | > 100 µM
O=C(N/N=C/c1ccncc1)c1ccc(C(F)(F)F)nc1Nc1cccc(C(F)(F)F)c1 | 0.808 µM | 7.99 µM | 2.6 µM | 9.5 µM | 2.7 µM | 10.7 µM | 2.55 µM | 7.36 µM | 3.43 µM | 11 µM | 2.67 µM | 9.22 µM | 2.81 µM | 11.7 µM | 2.91 µM | 10 µM | 0.271 µM | 1.74 µM | 2.69 µM | 11.8 µM
O=Cc1c[nH]c2ccc(-c3csc4ccccc34)cc12 | 5.12 µM | > 100 µM | 2.41 µM | 7.52 µM | 3.23 µM | > 100 µM | 4.42 µM | 54.3 µM | 3.34 µM | > 100 µM | 4.09 µM | > 100 µM | 3.31 µM | > 100 µM | 2.86 µM | 9.44 µM | 1.12 µM | 10.9 µM | 1.69 µM | > 100 µM
COc1ccc(/C=C/c2ccnc3ccccc23)cc1 |  | 19.9 µM |  | 37.6 µM |  | 36.6 µM |  | 30.4 µM |  | 23.1 µM |  | 33.6 µM |  | 27.5 µM |  | 27.9 µM |  | 61.1 µM |  | 23.2 µM
O=C1/C(=C\c2ccc([N+](=O)[O-])cc2)CS(=O)(=O)C/C1=C/c1ccc([N+](=O)[O-])cc1 | 0.207 µM | 0.612 µM and 1.37 µM | 0.136 µM | 0.579 µM and 0.363 µM | 0.168 µM | 0.398 µM and 1.29 µM | 0.359 µM | 10.5 µM | 0.127 µM | 0.382 µM and 2.77 µM | 0.315 µM | 3.15 µM | 0.4 µM | 3.03 µM | 0.332 µM | 0.966 µM and 3.37 µM | 0.908 µM |  |  | > 100 µM
O=c1c(-c2ccc3c(c2)OCO3)coc2c(CO)c(O)ccc12 | 3.39 µM | 18.1 µM | 2.28 µM | 6.46 µM | 4.55 µM | 20.8 µM | 1.96 µM | 4.41 µM | 16.9 µM | 44.8 µM | 3.72 µM | 21.4 µM | 1.91 µM | 3.98 µM | 1.76 µM | 3.95 µM | 2.65 µM | > 100 µM | 2.87 µM | > 100 µM
C/C(=C\CCc1ccsc1)CC/C=C(\C)CCCN1CCN(CCO)CC1 | 2.7 µM | 14.7 µM | 3.41 µM | 13.9 µM | 1.91 µM | 4.71 µM | 5.44 µM | 19.8 µM | 2.04 µM | 5.01 µM | 3.48 µM | 13.5 µM | 1.59 µM | 2.97 µM | 2.45 µM | 7.51 µM | 1.93 µM | 4.71 µM | 1.61 µM | 4.48 µM
Cc1ccc(C2NC(=S)N3C(c4ccc(C)cc4)NC(=S)N23)cc1 (stereo not drawn) | 9.89 µM | 21.9 µM | 4.12 µM | 13.7 µM | 1.94 µM | 8.54 µM | 7.78 µM | 22.1 µM | 2.58 µM | 10.2 µM | 2.33 µM | 6.19 µM | 3.88 µM | 14.3 µM | 5.57 µM | 18 µM | 0.491 µM | 3.55 µM | 1.01 µM | 12 µM
O=C1c2ccccc2-c2c1c1c(O)cccc1n2CCCc1ccccc1 | 87.7 µM | > 100 µM | 23.1 µM | > 100 µM | 3.85 µM | 38.5 µM | 88.5 µM | > 100 µM | 42.8 µM | > 100 µM | 4.47 µM | 51.1 µM | 12.6 µM | 27.8 µM | 17.3 µM | 43.2 µM | 4.05 µM | > 100 µM | 22.7 µM | > 100 µM
COc1ccccc1N(C(C)=O)C1=C(Cl)C(=O)c2ccccc2C1=O | 0.875 µM | 2.14 µM | 1.45 µM | 4.77 µM | 0.33 µM | 1.42 µM | 3.19 µM | 12.5 µM | 1.89 µM | 4.45 µM | 2.52 µM | 11.5 µM | 1.19 µM | 2.63 µM | 1.54 µM | 7.69 µM | 1.78 µM | 5.16 µM | 2.23 µM | 7.67 µM
CCOC(=O)c1c(C(F)(F)F)n([O-])c2ccc(Cl)cc2[n+]1=O | 2.16 µM | 5.73 µM | 1.74 µM | 3.21 µM | 2.11 µM | 4.3 µM | 2.02 µM | 3.95 µM | 1.9 µM | 3.83 µM | 2.8 µM | 6 µM | 1.51 µM | 2.96 µM | 1.73 µM | 3.93 µM | 1.55 µM | 4.35 µM | 2.2 µM | 4.37 µM
Oc1[nH]c2ccc(Cl)cc2c1/C=c1/ccc2c(c1)N=C(c1ccc(C(F)(F)F)cc1)N=2 | 2.73 µM | 11.4 µM | 2.51 µM | 6.65 µM | 1.66 µM | 3.24 µM | 2.72 µM | 7.64 µM | 1.78 µM | 3.94 µM | 2.6 µM | 7.77 µM | 1.7 µM | 3.31 µM | 1.32 µM | 4.17 µM | 2.43 µM | 5.38 µM | 2.6 µM | 7.73 µM
Nc1ncnc2c1nc(N)n2C1OC(CO)C(O)C1O (stereo not drawn) | 1.42 µM | 7.16 µM | 1.88 µM | 3.98 µM | 0.809 µM | 2.61 µM | 0.93 µM | 2.81 µM | 0.0589 µM | 1.31 µM | 0.697 µM | 3.29 µM | 1.25 µM | 2.61 µM | 0.657 µM | 1.94 µM | 0.524 µM | 4.38 µM | 0.271 µM | > 100 µM
Cc1cc(NS(=O)(=O)c2ccc(NC(=O)COc3ccc(-c4cc5ccccc5[nH]4)cc3)cc2)no1 | 1.53 µM | 3.98 µM | 1.98 µM | 4.61 µM | 1.79 µM | 4.09 µM | 2.33 µM | 7.74 µM | 1.73 µM | 3.44 µM | 2.64 µM | 9.37 µM | 2.34 µM | 6.84 µM | 1.7 µM | 6.58 µM | 1.67 µM | > 100 µM | 2.06 µM | > 100 µM
Cc1ccc2nc3sc(=O)sc3nc2c1 |  | 26.8 µM |  | 35.1 µM |  | 35.7 µM |  | 30.1 µM |  | 31.2 µM |  | 30.9 µM |  | 29.1 µM |  | 20.2 µM |  | 80.2 µM |  | 75.6 µM
O=C1c2cccc3cccc(c23)C(=O)N1CC#Cc1ccc2c3c(cccc13)C(=O)N(CCN1CCNCC1)C2=O | 1.93 µM | 3.82 µM | 1.82 µM | 3.39 µM | 2.03 µM | 5.04 µM | 13.5 µM | 35.5 µM | 2 µM | 3.96 µM | > 100 µM | > 100 µM | 18.3 µM | 36.4 µM | 15.4 µM | 31.1 µM | 1.98 µM | 4.78 µM | 1.16 µM | 2.75 µM
CCN1CCN(CC(=O)Nc2nc3ccc(NCc4ccc(C)cc4)cc3s2)CC1 | 6.24 µM | 16.2 µM | 1.5 µM | 4.3 µM | 4.45 µM | 11.5 µM | 5.76 µM | 16.5 µM | 1.27 µM | 3.48 µM | 5.98 µM | 21.6 µM | 0.975 µM | 2.01 µM | 5.27 µM | 11.3 µM | 1.8 µM | 8.37 µM | 0.949 µM | 2.09 µM
COC(=O)c1c2c(c(C)[n+]([O-])c1C)C(=O)C=C(NCc1ccc(Br)cc1)C2=O | 0.181 µM | 1.04 µM | 0.72 µM | 2 µM | 1.23 µM | 4.11 µM | 1.22 µM | 3.35 µM | 0.339 µM | > 100 µM | 0.332 µM | 3.31 µM | 0.201 µM | 0.435 µM | 0.904 µM | 2.3 µM | 1.7 µM | > 100 µM | 0.0472 µM | > 100 µM
